Results as given in patent US11467168B2, “Methods of identifying a moldulator of otopetrin-mediated proton translocation activity” (UNIVERSITY OF SOUTHERN CALIFORNIA, priority 2017, dated 2022).
Where “and” joins values, the source holds several entries; their conditions need not be identical. Equal entries are not always repeated.

Target: T1, Otop1 (Mus musculus, UniProt Q80VM9, G396A)
T1 construct: expressed in transfected cells; host or cells: HEK-293 cells (CRL-1573, ATCC), transient co-transfection with GFP, cDNA in pcDNA3
T1 sequence (Q80VM9 1-600 G396A): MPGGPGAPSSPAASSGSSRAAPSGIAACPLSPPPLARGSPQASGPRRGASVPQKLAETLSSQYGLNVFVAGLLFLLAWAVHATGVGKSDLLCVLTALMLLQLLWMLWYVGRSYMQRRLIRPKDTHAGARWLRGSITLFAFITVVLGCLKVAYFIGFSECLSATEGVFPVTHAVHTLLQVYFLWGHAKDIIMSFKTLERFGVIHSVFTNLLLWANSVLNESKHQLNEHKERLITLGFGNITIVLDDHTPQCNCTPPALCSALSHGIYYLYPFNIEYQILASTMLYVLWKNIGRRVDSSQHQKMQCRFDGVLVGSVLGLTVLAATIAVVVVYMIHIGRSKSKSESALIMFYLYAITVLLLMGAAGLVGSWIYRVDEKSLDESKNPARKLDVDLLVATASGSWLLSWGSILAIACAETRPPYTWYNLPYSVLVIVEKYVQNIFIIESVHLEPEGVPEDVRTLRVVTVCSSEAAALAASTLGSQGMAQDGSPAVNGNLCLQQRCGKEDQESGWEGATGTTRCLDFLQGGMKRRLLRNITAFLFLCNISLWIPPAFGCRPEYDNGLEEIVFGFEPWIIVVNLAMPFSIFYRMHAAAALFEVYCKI
Assay: Zn2+ inhibition of Otop1 currents, whole-cell patch clamp in transfected HEK-293 cells
Type: cell-based
Settings: Otop1-transfected HEK-293 cells, currents evoked by pH 5.5, Hill equation fit
From the text: The transition metal Zn^2+ is a potent inhibitor of Hv1, binding to two external histidine residues that regulate gating^7,31,32. […] To gain insights into structural elements involved in ion permeation by Otop1, we measured its sensitivity to inhibition by Zn^2+.
Otop and GFP (5:1) were co-transfected into HEK-293 cells (CRL-1573, ATCC) using TransIT-LT1 Transfection Reagent (Mirus Bio Corporation, Madison, Wis.). Patch clamp recording and imaging experiments on GFP-positive cells were performed at room temperature ˜24-48 h after transfection.
Whole-cell patch clamp recording was performed as previously described^49. In brief, recordings were made with an Axopatch 200A or Axopatch 200B amplifier, digitized with a Digidata 1322a 16-bit data acquisition system, acquired with pClamp 8.2, and analyzed with Clampfit 8.2 (Molecular Devices, Palo Alto, Calif.). Records were sampled at 5 kHz and filtered at 1 kHz. Patch pipettes with resistance of 2-4 MΩ were fabricated from borosilicate glass, and only recordings in which a gigaohm seal was achieved were used in the analysis. For most experiments, after the whole cell configuration was achieved, the membrane potential was held at −80 mV, or ramped from −80 mV to +80 mV (1V/s) once per second. […]

Hill coefficient: 0.89 and 0.89±0.06
IC50: 190 µM
SMILES: [Cl-].[Cl-].[Zn+2] [Zn^2+, ZnCl2]
